Data as given in patent publication US10441681B2, “Materials and methods for nerve grafting” (University of Florida Research Foundation, Inc., priority 2001, dated 2019).

Tests used:
CSPG = CSPG neoepitope immunostaining of human nerve segments treated with chondroitinase
Experimental: Axonal regeneration was assessed by GAP-43 immunofluorescence and digital image analysis. Tissue sections mounted on slides were washed with PBS and then treated with 0.5% Triton X-100 in PBS for 10 min. The sections were treated with blocking buffer (10% serum in PBS+0.1% Triton X-100) and then incubated overnight at 4° C. with primary antibodies (diluted in blocking buffer). Bound antibodies were labeled with swine anti-rabbit immunoglobulins (DAKO CORPORATION, Carpinteria, Calif.) or goat anti-mouse immunoglobulins (Sigma) FITC-conjugated secondary antibodies for 1 h at room temperature in darkness. The anti-mouse secondary antibody was preadsorbed with rat serum prior to use. The sections were washed, postfixed with 4% paraformaldehyde in PBS, rinsed, and coverslipped in fluorescent mounting media. Affinity-purified rabbit anti-GAP-43 peptide antibody was produced using known methods (Ferguson T A et al. [2000] Mol Cell Neurosci, 16:157-167) and was used at 2 μg/ml. Polyclonal antibody 1918 (CHEMICON INTERNATIONAL, Temecula, Calif.) (1:1000) binds only to the unsaturated disaccharide unit that remains attached to the linkage region of CSPG core protein exposed by digestion with chondroitinase ABC (Bertolotto A et al. [1986] J Neurol Sci 73:233-244). Polyclonal anti-EHS laminin antibody (Sigma) (1:1000) was used to label basal laminae. […]

[1] = test system: embryonic chick DRG neurons; assay: Cryoculture bioassay (neurite outgrowth) on sections of acellular rat nerve segments; assay type: cell-based
Experimental: Cryoculture is a neurite outgrowth assay in which neurons are cultured directly on fresh/frozen nerve sections and was performed as described previously (Ferguson T A et al. [2000] Mol Cell Neurosci, 16:157-167). Briefly, chondroitinase- and vehicle-treated nerve segments were sectioned at 20 μm, mounted on sterile, aminopropyltriethoxysilane (APTS)-coated coverslips and stored at −20° C. until used. Where indicated, sections were treated with chondroitinase ABC (0.1 unit/ml) or vehicle (50 mM Tris-HCl, pH 8.0), containing 50 mM NaCl) for 2 h at 37° C. Purified dorsal root ganglionic (DRG) neurons from day 8 chick embryos were seeded directly on the nerve sections in a defined N2 medium (Bottenstein J E et al. [1980] Exp Cell Res 125:183-190) containing 10 ng/ml nerve growth factor. Cryoculture assays were terminated after 24 h of incubation by fixation with 100% methanol. Neuritic growth by DRG neurons was accessed by GAP-43 immunofluorescent labeling. Epifluorescent photomicrographs were acquired as described for tissue sections. Neurite lengths were measured directly using IMAGE-PRO PLUS software (MEDIA CYBERNETICS, Silver Springs, Md.). At least 250 neurons with neurites greater than one cell body (˜15 μm) were scored for each condition in each experiment.
Inactivation of inhibitory CSPG in chondroitinase-treated acellular nerve was determined by cryoculture bioassay. Embryonic chick DRG neurons were seeded onto sections of prepared nerve segments and the neurite-promoting activity was assessed by scoring neurite growth. On sections of acellular nerve pretreated en bloc with vehicle only the average neurite length was 49 μm. Neurite growth on acellular nerve pretreated en bloc with chondroitinase averaged 96 μm, representing a 95% increase compared to the control condition. To determine if the en bloc chondroitinase treatment was thorough, cryoculture assays were performed on nerve tissues treated with chondroitinase after sectioning (post-treatment).

CSPG side chain degradation (neoepitope labeling) (CSPG): effectively degraded
effect of post-treatment on sections from en bloc chondroitinase-treated nerve grafts ([1]; post-treatment after sectioning): only a slight additive effect
Substance: chondroitinase ABC
increase in neurite growth compared to the control condition ([1]; acellular nerve pretreated en bloc vs en bloc vehicle): 95%
average neurite length ([1]; acellular nerve pretreated en bloc, DRG neurons grown 24 h): 96 μm
increase in neurite-promoting activity by post-treatment of sections ([1]; acellular nerve treated en bloc with vehicle only, sections post-treated with chondroitinase): 86%
